Test results reported in a melting point compilation (Tetko et al.; mined from patent text by program, amines drawn as free bases though some values may be those of a salt).

| Structure (SMILES) | melting point |
| --- | --- |
| O=C(Nc1ccc(N2CCN(C(=O)C(O)c3ccccc3Cl)CC2)nc1)Nc1ccccc1F (stereo not given) | 127 to 128 °C |
| Cc1ccc(C2COc3c(C)c(C)c(NC(=O)CC(C)(C)C)c(C)c32)cc1 (stereo not given) | 176 to 177 °C |
| C=CCOc1ccccc1S(=O)(=O)NC(=O)n1nc(SCCF)n(C2CC2)c1=O | 15 °C |
| O[C@@H]1[C@H](O)[C@H](O)CO[C@H]1n1c(Br)nc2cc(Cl)ccc21 | 120 °C |
| CN1CC(O)=C(C(=O)Nc2ccccn2)N(C)S1(=O)=O | 185 °C |
| CC(=O)OCC1OC([NH+]2C=NC(C#N)=C2[O-])C(OC(C)=O)C1OC(C)=O (stereo not given) | 160 to 161 °C |
| C=CCOc1ccc2c(=O)c(C)c(-c3ccccc3)oc2c1C(=O)C=Cc1ccccc1 | 145 to 147 °C |
| COC(=O)c1ccc2c(c1)-n1cccc1CO2 | 60 to 62 °C |
| CC(C)(C)OC(=O)NCc1cccc(C(=O)O)c1 | 127 to 128 °C |
| CC(=O)Oc1ccccc1C(=O)NC(S(=O)C(C)C)C(Cl)(Cl)Cl (stereo not given) | 90 to 92 °C |
| CC(=O)C(C)(C)COS(=O)(=O)c1ccc(C)cc1 | 49 to 52 °C |
| COC(=O)C(NC(=O)c1ccccc1)c1ccc(-c2ccc(S)cc2)cc1 (stereo not given) | 150 to 152 °C |
| CCCc1c(C(=O)C(C)C)c2ccc(C(=O)OC)cc2n1Cc1ccc(Br)cc1F | 110 to 112 °C |
| CC(C)(n1cncn1)C(O)(Cn1cncn1)c1ccc(F)cc1F (stereo not given) | 155 to 157 °C |
| CCCCOC(=O)c1c(C)nc2cc(OC)c(OC)cc2c1-c1ccc(OC)c(OC)c1 | 119 to 120 °C |
| COc1cc(OS(C)(=O)=O)ccc1-c1nc2cc3c(cc2[nH]1)NC(=O)C3(C)C | 233 to 235 °C |
| CCN1C(=O)Cc2ccc(OC(=O)CCl)cc21 | 114 to 116 °C |
| COCC(C)n1nc(-c2c(-c3ccccc3)nn3ccc(OC)cc23)ccc1=O (stereo not given) | 138 to 139 °C |
| CC(=O)NCCCCC(NC(C)=O)C(=O)O (racemic) | 138 to 139 °C |
| CNC(=O)c1cc2c(Oc3ccc(Br)cc3)cncc2s1 | 78 to 80 °C |
| Cn1c(Cc2ccc(Cl)c(Oc3cc(C#N)cc(C#N)c3)c2F)nn(COC(=O)CCC(=O)O)c1=O | 142 to 143 °C |
| C=C(C(=O)c1ccc(C=CC(=O)O)cc1)c1c(F)c(F)c(F)c(F)c1F | 214 to 217 °C |
| O=S(=O)(F)C=CNc1ccc(C(F)(F)F)cc1 | 71 to 73 °C |
| CN(C)c1ccc(/C=C\c2ccc3c(=O)[nH]ncc3c2)cc1 | 312 to 318 °C |
| Cc1nnsc1C(=O)Nc1ccc(-n2nc(C(F)(F)F)c(Cl)c2C2CC2)c(F)c1 | 143 to 147 °C |

| Structure (SMILES) | melting point |
| --- | --- |
| COC(=O)C1(NS(=O)(=O)c2ccc3c(Cl)cnc(Cl)c3c2)CCOCC1 | 168 to 170 °C |
| COc1nc(N)nc(C(C)C)n1 | 116 to 118 °C |
| CC(C)Cn1c(C(O)c2ccccc2)nc2c(N)nc3ccccc3c21 (stereo not given) | 125 to 140 °C |
| CCOC(=O)c1cnc2c(nc(C)n2C)c1Cl | 85 to 90 °C |
| COP(=O)(OC)C(O)=Cc1ccccc1F | 71 to 73 °C |
| O=C1CCN=C(c2ccccc2F)c2cc(Cl)ccc21 | 107 to 109 °C |
| C=CCSC(=NC(=O)OC)NC(=O)NC(C)C | 103 to 106 °C |
| CCOC(=O)Nc1cc(N(C(=O)OCC)S(C)(=O)=O)c(C#N)cc1F | 129 °C |
| C/C(=N\O)c1cccc(NC(=O)NCC(=O)N2[C@@H](C(=O)OC(C)(C)C)CC[C@H]2c2ccccc2)c1 (racemic) | 118 °C |
| CC(O)(c1ccc(Oc2ccccc2)cc1)C1SCSCS1 (stereo not given) | 70 to 71 °C |
| CC1=Cc2cc(Br)cc(S(N)(=O)=O)c2OS1(=O)=O | 243 to 245 °C |
| CCn1c(=O)c2nc(C(=O)O)cn2c2ccccc21 | 250 to 252 °C |
| CC(=O)OCS(=O)(=O)C1=CCC2C3CCC4=CC(=O)C=CC4(C)C3(F)C(O)CC12C (stereo not given) | 186 to 187 °C |
| COc1cc(Oc2cccc(C(F)(F)F)c2)nc(C(=O)NO)c1 | 120 to 122 °C |
| Cc1[nH]c2ccccc2c1CN1CCC(c2c(Cl)cccc2Cl)CC1 | 168 to 170 °C |
| CCCCN=C(c1cc(Cl)ccc1O)c1ccccc1Cl | 49.6 °C |
| COc1cc(OCc2ccccc2)ccc1-c1nc2ncccc2[nH]1 | 244 °C |
| O=C1CC(c2ccccc2)Cc2c1ccn2C(=O)c1ccccc1 (stereo not given) | 140 to 142 °C |
| Cc1c(-c2cccc(F)c2)sc2nc(N)[nH]c(=O)c12 | 310 to 330 °C |
| CC#CC1(O)CCC2C3CCC4=CC(=O)CCC4C3C(C(F)F)CC21C (stereo not given) | 191 to 193 °C |
| CC(C(=O)O)c1ccc(Nc2ccc(Cl)cc2)cc1 (stereo not given) | 106 to 109 °C |
| COc1ccc2c(c1)CCC(n1cc[nH]c1=S)C2 (stereo not given) | 226 to 227 °C |
| N#Cc1ccc(-c2ncc(C(F)(F)F)cc2Cl)cc1OCC(=O)C1CC1 | 115 to 116 °C |
| CC(C)NC(=O)Nc1cc(-c2c(-c3ccc(F)cc3)nc3cccnn23)ccn1 | 222 to 223 °C |
| Cc1cn(C(C)(C)C(=O)N(C)C)nc1-c1ccccc1F | 112 to 114 °C |
